Test results as given in PubChem BioAssay (NCI).
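Where inhibition never reached the appropriate level, the endpoint shown equals the highest concentration tested. Otherwise, values were interpolated linearly from a five-concentration, 48-hour dose response in 96-well plates. TGI: total growth inhibition.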 Residues, ends and D or L forms follow the SMILES beside them. *: point of attachment. Boc = CC(C)(C)OC(=O)*; OBn = c1ccc(CO*)cc1

Legend:
Assay in all cases: NCI anticancer screen, dose series, 48 h
SN12C renal = system: SN12C renal
UACC-62 melanoma = system: UACC-62 melanoma
LOX IMVI melanoma = system: LOX IMVI melanoma
A549 NSCLC = system: A549 NSCLC
T-47D breast = system: T-47D breast
OVCAR-3 ovarian = system: OVCAR-3 ovarian
UO-31 renal = system: UO-31 renal
SK-MEL-2 melanoma = system: SK-MEL-2 melanoma
U251 CNS = system: U251 CNS
CAKI-1 renal = system: CAKI-1 renal

Measured: TGI

CC(C)CC(NC(=O)OC(C)(C)C)C(=O)N1CCCC1C(=O)OCc1ccccc1 (stereo not drawn) (Boc-Leu-Pro-OBn; configuration not given here)
> 100 µM: all assays above
